In patent US20210179666A1, “CYCLIC PEPTIDES AND METHODS OF USE THEREOF” (Regents of the University of Minnesota, priority 2019, published 2021):
Several values for one entry are separate records, joined by “and”; a condition that tells them apart may be missing. Equal entries are not always repeated. Where two headings read alike, the source gives them in different places. Square brackets hold non-standard residues; d marks the D form. Peptide text beside a SMILES is read from it. Dap = NC[C@H](N)C(=O)O

How the values were obtained:
mMC1R [1] = molecular target: T1, mMC1R (Mus musculus, UniProt Q01727); assay: 125I-NDP-MSH competitive binding assay, transfected HEK293 cells, mMC1R; details: binding IC50 versus control 1 (Asn) or 2 (Dap)
T1 sequence (Q01727 whole entry): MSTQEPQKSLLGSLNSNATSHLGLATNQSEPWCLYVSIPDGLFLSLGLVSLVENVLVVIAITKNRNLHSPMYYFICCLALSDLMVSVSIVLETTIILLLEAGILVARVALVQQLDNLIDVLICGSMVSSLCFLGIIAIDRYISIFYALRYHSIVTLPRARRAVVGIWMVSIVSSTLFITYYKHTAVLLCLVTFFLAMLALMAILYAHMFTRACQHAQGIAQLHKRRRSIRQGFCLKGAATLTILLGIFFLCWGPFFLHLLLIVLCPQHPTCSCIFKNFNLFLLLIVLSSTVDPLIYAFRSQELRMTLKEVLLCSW

mMC5R [2] = molecular target: T2, mMC5R (Mus musculus, UniProt P41149); assay: 125I-NDP-MSH competitive binding assay, transfected HEK293 cells, mMC5R; details: binding IC50 versus control 1 (Asn) or 2 (Dap)
T2 sequence (P41149 whole entry): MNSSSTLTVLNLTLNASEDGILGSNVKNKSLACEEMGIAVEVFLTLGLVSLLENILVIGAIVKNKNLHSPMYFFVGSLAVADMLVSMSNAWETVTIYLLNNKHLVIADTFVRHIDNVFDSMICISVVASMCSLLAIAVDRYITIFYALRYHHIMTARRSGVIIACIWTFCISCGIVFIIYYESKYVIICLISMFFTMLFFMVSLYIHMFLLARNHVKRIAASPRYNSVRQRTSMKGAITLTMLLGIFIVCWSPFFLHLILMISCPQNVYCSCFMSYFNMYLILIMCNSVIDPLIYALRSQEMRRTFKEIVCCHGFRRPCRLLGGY

mMC4R [3] = molecular target: T3, mMC4R (Mus musculus, UniProt P56450); assay: 125I-NDP-MSH competitive binding assay, transfected HEK293 cells, mMC4R; details: binding IC50 versus control 1 (Asn) or 2 (Dap)
T3 sequence (P56450 whole entry): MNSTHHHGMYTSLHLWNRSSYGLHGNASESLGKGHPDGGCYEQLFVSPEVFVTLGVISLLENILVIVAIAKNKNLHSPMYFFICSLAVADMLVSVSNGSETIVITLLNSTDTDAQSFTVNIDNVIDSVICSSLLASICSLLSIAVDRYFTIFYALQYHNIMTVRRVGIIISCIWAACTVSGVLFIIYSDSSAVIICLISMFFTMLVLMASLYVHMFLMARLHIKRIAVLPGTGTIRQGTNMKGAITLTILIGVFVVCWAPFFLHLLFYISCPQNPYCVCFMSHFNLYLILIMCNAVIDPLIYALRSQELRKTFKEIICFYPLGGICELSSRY

hMC4R [4] = molecular target: T4, hMC4R (Homo sapiens, UniProt P32245); assay: cAMP AlphaScreen bioassay, HEK293 cells stably expressing hMC4R; assay type: cell-based; design: expressed in transfected cells; details: for hMC4R pA2: antagonist pA2, Schild analysis with agonist NDP-MSH, ± SEM, <5.0 = no antagonist potency up to 10,000 nM; for Observed Inverse Agonism?: hMC4R, cAMP
T4 sequence (P32245 whole entry): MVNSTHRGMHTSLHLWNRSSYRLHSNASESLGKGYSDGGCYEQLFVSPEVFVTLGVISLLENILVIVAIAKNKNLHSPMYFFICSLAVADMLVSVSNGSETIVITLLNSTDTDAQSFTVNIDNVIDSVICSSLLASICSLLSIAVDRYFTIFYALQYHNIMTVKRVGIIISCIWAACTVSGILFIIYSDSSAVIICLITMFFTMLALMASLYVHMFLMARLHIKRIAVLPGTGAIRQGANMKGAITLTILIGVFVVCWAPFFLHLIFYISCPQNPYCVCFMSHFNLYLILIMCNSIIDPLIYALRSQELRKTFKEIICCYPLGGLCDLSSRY

mMC4R [5] = molecular target: T3, mMC4R; details: ± SEM; for mMC4R pA2: Example 1, antagonist, Schild analysis with NDP-MSH, <5.0 = no antagonist potency up to 10,000 nM
mMC3R [6] = molecular target: T5, mMC3R (Mus musculus, UniProt P33033); assay: 125I-NDP-MSH competitive binding assay, transfected HEK293 cells, mMC3R; details: binding IC50 versus control 1 (Asn) or 2 (Dap)
T5 sequence (P33033 whole entry): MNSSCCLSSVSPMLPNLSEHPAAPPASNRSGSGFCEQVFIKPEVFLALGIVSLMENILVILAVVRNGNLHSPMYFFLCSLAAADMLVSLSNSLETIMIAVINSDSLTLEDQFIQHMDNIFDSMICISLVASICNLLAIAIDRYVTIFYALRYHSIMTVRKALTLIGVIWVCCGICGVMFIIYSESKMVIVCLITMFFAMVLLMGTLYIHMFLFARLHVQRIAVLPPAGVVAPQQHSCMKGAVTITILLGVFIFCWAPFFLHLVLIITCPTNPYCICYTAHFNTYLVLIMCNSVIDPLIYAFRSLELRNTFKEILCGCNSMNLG

hMC4R [7] = molecular target: T4, hMC4R; assay: 125I-NDP-MSH competitive binding assay, transfected HEK293 cells, hMC4R; details: binding IC50 versus control 1 (Asn) or 2 (Dap)
mMC3R [8] = molecular target: T5, mMC3R; details: ± SEM; for mMC3R pA2: antagonist, Schild analysis with NDP-MSH
mMC5R [9] = molecular target: T2, mMC5R
mMC1R [10] = molecular target: T1, mMC1R; assay: cAMP AlphaScreen bioassay, HEK293 cells stably expressing mMC1R; details: for mMC1R pharmacology observed (Partial Agonist): Example 2
[11] = Example 1, <5.0 = no antagonist potency up to 10,000 nM
[12] = Example 2, <5.5 = no antagonist potency up to 10,000 nM
[13] = Example 1, agonist, >100,000 = no agonist activity up to 100 μM

SMILES	mMC4R Fold Diff (mMC4R [3])	hMC4R pA2 (hMC4R [4])	Observed Inverse Agonism? (hMC4R [4])	mMC4R pA2 (mMC4R [5])	hMC4R Fold Diff (hMC4R [7])	mMC5R pharmacology observed (Partial Agonist / Inverse Agonist) (mMC5R [9]; Example 2)	mMC3R pA2 (mMC3R [8]; [12])	further results
C[C@@H]1NC(=O)[C@H](CN)NC(=O)[C@H](Cc2ccccc2)NC(=O)[C@H](Cc2ccccc2)NC(=O)[C@H](Cc2c[nH]cn2)NC(=O)[C@@H]2CCCN2C(=O)[C@H]2CCCN2C(=O)[C@H](Cc2ccccc2)NC1=O [ZMK 2-99, c[Pro-His-Phe-Phe-Dap-Ala-Phe-DPro]] (cyclo(PHFF[Dap]AF[dP]))	500	6.4 and 6.4 ± 0.09	No	6.0 and 6.0 ± 0.1	400			mMC1R Fold Diff (mMC1R [1]): 5; mMC5R Fold Diff (mMC5R [2]): 7; mMC3R Fold Diff (mMC3R [6]): 5; mMC3R pA2 (mMC3R [8]; [11]): 5.4 and 5.4 ± 0.1
C[C@@H]1NC(=O)[C@H](CC(N)=O)NC(=O)[C@H](Cc2ccccc2)NC(=O)[C@H](Cc2ccc(O)cc2)NC(=O)[C@H](CCCNC(=N)N)NC(=O)[C@@H]2CCCN2C(=O)[C@H]2CCCN2C(=O)[C@H](Cc2ccccc2)NC1=O [ZMK 2-110, c[Pro-Arg-Tyr-Phe-Asn-Ala-Phe-DPro]] (cyclo(PRYFNAF[dP]))	100	6.5 and 6.5 ± 0.2	Yes	6.1 and 6.1 ± 0.03	2000			mMC5R pharmacology observed in agonist assay (Inverse Agonist) (mMC5R [9]; Example 1): Inverse; mMC3R pA2 (mMC3R [8]; [11]): 5.8 and 5.8 ± 0.2
C[C@@H]1NC(=O)[C@H](CN)NC(=O)[C@H](Cc2ccccc2)NC(=O)[C@H](Cc2ccccc2)NC(=O)[C@H](CCCNC(=N)N)NC(=O)[C@@H]2CCCN2C(=O)[C@H]2CCCN2C(=O)CN(Cc2ccccc2)C1=O [MDE8-108-7c, c[Pro-Arg-Phe-Phe-Dap-Ala-NPhe-DPro]]								mMC5R inverse agonist, percent decrease from basal (mMC5R [9]): −10%
C[C@@H]1NC(=O)[C@H](CC(N)=O)NC(=O)[C@H](Cc2ccccc2)NC(=O)[C@H](Cc2ccccc2)NC(=O)[C@H](CCCNC(=N)N)NC(=O)[C@@H]2CCCN2C(=O)[C@H]2CCCN2C(=O)[C@H](Cc2ccccc2)NC1=O [MDE 6-82-3c, c[Pro-Arg-Phe-Phe-Asn-Ala-Phe-DPro]]			Yes					
C[C@@H]1NC(=O)[C@H](CN)NC(=O)CN(Cc2ccccc2)C(=O)[C@H](Cc2ccccc2)NC(=O)[C@H](CCCNC(=N)N)NC(=O)[C@@H]2CCCN2C(=O)[C@H]2CCCN2C(=O)[C@H](Cc2ccccc2)NC1=O [MDE9-93c, c[Pro-Arg-Phe-NPhe-Dap-Ala-Phe-DPro]]						Inverse	7.1 ± 0.1	mMC1R pharmacology observed (Partial Agonist) (mMC1R [10]): Partial; mMC5R inverse agonist, percent decrease from basal (mMC5R [9]; Example 2, basal to plateau signal, sigmoidal dose-response): −10%
C[C@@H]1NC(=O)[C@H](CN)NC(=O)[C@H](Cc2ccccc2)NC(=O)CN(Cc2ccccc2)C(=O)[C@H](CCCNC(=N)N)NC(=O)[C@@H]2CCCN2C(=O)[C@H]2CCCN2C(=O)[C@H](Cc2ccccc2)NC1=O [MDE9-32c, c[Pro-Arg-NPhe-Phe-Dap-Ala-Phe-DPro]]						Partial	6.9 ± 0.3	mMC1R pharmacology observed (Partial Agonist) (mMC1R [10]): Partial
C[C@@H]1NC(=O)[C@H](CC(N)=O)NC(=O)[C@H](Cc2ccccc2)NC(=O)CN(Cc2ccccc2)C(=O)[C@H](CCCNC(=N)N)NC(=O)[C@@H]2CCCN2C(=O)[C@H]2CCCN2C(=O)[C@H](Cc2ccccc2)NC1=O [MDE9-77c, c[Pro-Arg-NPhe-Phe-Asn-Ala-Phe-DPro]]						Inverse	5.8 ± 0.1	EC50 (mMC1R [10]; read-out: mMC1R EC50, Example 2 (Table 7, first EC50 column), ± SEM, >100,000 = no agonist activity up to 100 μM): 240 nM; mMC5R inverse agonist, percentage change from basal (mMC5R [9]; Example 2, @ 100 μM, no sigmoidal dose-response curve): −10% @
C[C@@H]1NC(=O)[C@H](CC(N)=O)NC(=O)[C@H](Cc2ccccc2)NC(=O)[C@H](Cc2ccccc2)NC(=O)[C@H](CS)NC(=O)[C@@H]2CCCN2C(=O)[C@H]2CCCN2C(=O)[C@H](Cc2ccccc2)NC1=O [ZMK 3-18, c[Pro-Cys-Phe-Phe-Asn-Ala-Phe-DPro]] (cyclo(PCFFNAF[dP]))	90	5.8 and 5.8 ± 0.2	No	5.9	300			mMC1R Fold Diff (mMC1R [1]): 3; mMC4R EC50 (nM) (mMC4R [5]; [13]): unable to stimulate; mMC1R percent maximal stimulatory response (mMC1R [10]; Example 1, @ 100 μM, relative to NDP-MSH signal, EC50 not determinable): 46%; mMC5R pharmacology observed in agonist assay (Inverse Agonist) (mMC5R [9]; Example 1): inverse agonist activity; mMC5R inverse agonist, percent change from basal (mMC5R [9]; Example 1, @ 100 μM, no sigmoidal dose-response curve): −32%; mMC3R EC50 (nM) (mMC3R [8]; [13]): unable to stimulate
